# According to patent US20140005214A1, “PIPERIDINONE CARBOXAMIDE SPIROHYDANTOIN CGRP RECEPTOR ANTAGONISTS” (priority 2011, published 2014):
# Target: T1, recombinant human CL receptor/RAMP1 (Homo sapiens, UniProt O60894+Q16602)
# T1 construct: expressed in transfected cells; membranes
# Assay: Recombinant receptor binding assay (125I-hCGRP)
# Conditions: membranes of HEK 293 cells expressing recombinant human CL receptor/RAMP1; 10 pM 125I-hCGRP
# Protocol: RECOMBINANT RECEPTOR: Human CL receptor (Genbank accession number L76380) was subcloned into the expression vector pIREShyg2 (BD Biosciences Clontech) as a 5′NheI and 3′ PmeI fragment. Human RAMP1 (Genbank accession number AJ001014) was subcloned into the expression vector pIRESpuro2 (BD Biosciences Clontech) as a 5′NheI and 3′NotI fragment. HEK 293 cells (human embryonic kidney cells; ATCC #CRL-1573) were cultured in DMEM with 4.5 g/L glucose, 1 mM sodium pyruvate and 2 mM glutamine supplemented with 10% fetal bovine serum (FBS), 100 units/mL penicillin and 100 μg/mL streptomycin, and maintained at 37° C. and 95% humidity. Cells were subcultured by treatment with 0.25% trypsin with 0.1% EDTA in HBSS. Stable cell line generation was accomplished by co-transfecting 10 μg of DNA with 30 μg Lipofectamine 2000 (Invitrogen) in 75 cm^2 flasks. CL receptor and RAMP1 expression constructs were co-transfected in equal amounts. Twenty-four hours after transfection the cells were diluted and selective medium (growth medium+[…] hygromycin and 1 μg/mL puromycin) was added the following day. A clonal cell line was generated by single cell deposition utilizing a FACS Vantage SE (Becton Dickinson). Growth medium was adjusted to 150 μg/mL hygromycin and 0.5 μg/mL puromycin for cell propagation.
# RECOMBINANT RECEPTOR BINDING ASSAY: Cells expressing recombinant human CL receptor/RAMP1 were washed with PBS and harvested in harvest buffer containing 50 mM HEPES, 1 mM EDTA and Complete™ protease inhibitors (Roche). The cell suspension was disrupted with a laboratory homogenizer and centrifuged at 48,000 g to isolate membranes. The pellets were resuspended in harvest buffer plus 250 mM sucrose and stored at −70° C. For binding assays, 20 μg of membranes were incubated in 1 mL binding buffer (10 mM HEPES, pH 7.4, 5 mM MgCl2, and 0.2% BSA) for 3 h at room temperature containing 10 pM ^125I-hCGRP (GE Healthcare) and antagonist. The assay was terminated by filtration through 96-well GFB glass fiber filter plates (PerkinElmer) that had been blocked with 0.05% polyethyleneimine. The filters were washed 3 times with ice-cold assay buffer (10 mM HEPES, pH 7.4, and 5 mM MgCl2). Scintillation fluid was added and the plates were counted on a Topcount (Packard). Non-specific binding was determined and the data analysis was carried out with the apparent dissociation constant (Ki) determined by using a non-linear least squares fitting the bound CPM data to the equation below: […]
# Where Y is observed CPM bound, Ymax is total bound counts, Ymin is non specific bound counts, (Ymax−Ymin) is specific bound counts, % Imax is the maximum percent inhibition, % I min is the minimum percent inhibition, radiolabel is the probe, and the Kd is the apparent dissociation constant for the radioligand for the receptor as determined by hot saturation experiments.
# T1 sequence (Q16602 23-461): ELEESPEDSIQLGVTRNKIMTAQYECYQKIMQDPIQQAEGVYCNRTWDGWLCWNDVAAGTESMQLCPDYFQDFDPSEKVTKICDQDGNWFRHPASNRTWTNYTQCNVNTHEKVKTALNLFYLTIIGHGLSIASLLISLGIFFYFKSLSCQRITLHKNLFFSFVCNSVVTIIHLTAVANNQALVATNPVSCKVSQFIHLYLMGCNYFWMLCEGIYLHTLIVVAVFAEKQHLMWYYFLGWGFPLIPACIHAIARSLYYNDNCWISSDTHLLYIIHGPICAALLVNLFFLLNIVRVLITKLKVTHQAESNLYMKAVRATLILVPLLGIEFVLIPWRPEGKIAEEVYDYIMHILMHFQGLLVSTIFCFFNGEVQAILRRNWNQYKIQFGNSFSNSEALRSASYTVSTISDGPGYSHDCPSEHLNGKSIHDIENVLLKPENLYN
# T1 sequence (O60894 27-148): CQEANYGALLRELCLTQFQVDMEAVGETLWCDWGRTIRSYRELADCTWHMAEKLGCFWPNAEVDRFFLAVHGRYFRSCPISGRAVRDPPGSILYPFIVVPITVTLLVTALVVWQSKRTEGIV
row,SMILES,Ki
1,Cc1cccc([C@@H]2C[C@H](NC(=O)c3ccc4c(c3)C[C@@]3(C4)C(=O)NC(=O)N3C)C(=O)N(CC(F)(F)F)[C@@H]2C)c1 [Example 6],1.8 nM
2,C[C@@H]1[C@H](c2ccccc2)C[C@H](NC(=O)c2ccc3c(c2)C[C@@]2(C3)C(=O)NC(=O)N2C)C(=O)N1CC(F)(F)F [Example 3],0.36 nM
3,Cc1c(F)cccc1[C@@H]1C[C@H](NC(=O)c2ccc3c(c2)C[C@@]2(C3)C(=O)NC(=O)N2C)C(=O)N(CC(F)(F)F)[C@@H]1C [Example 7],0.5 nM
4,C[C@@H]1[C@H](c2c(F)ccc(F)c2F)C[C@H](NC(=O)c2ccc3c(c2)C[C@@]2(C3)C(=O)NC(=O)N2C)C(=O)N1CC(F)(F)F [Example 2],0.048 nM
5,Cc1ccccc1[C@@H]1C[C@H](NC(=O)c2ccc3c(c2)C[C@@]2(C3)C(=O)NC(=O)N2C)C(=O)N(CC(F)(F)F)[C@@H]1C [Example 5],1.9 nM

# These reach a lower Ki. Values come first.
row,Ki,SMILES
1,0.042 nM,"C[C@@H]1[C@H](c2cc(F)cc(F)c2F)C[C@H](NC(=O)c2ccc3c(c2)C[C@@]2(C3)C(=O)NC(=O)N2C)C(=O)N1CC(F)(F)F [Example 1, (4S)-3-Methyl-N-[(3S,5S,6R)-6-methyl-2-oxo-1-(2,2,2-trifluoroethyl)-5-(2,3,5-trifluorophenyl)piperidin-3-yl]-2,5-dioxo-1′,3′-dihydrospiro[imidazolidine-4,2′-indene]-5′-carboxamide]"
2,0.036 nM,C[C@@H]1[C@H](c2c(F)c(F)cc(F)c2F)C[C@H](NC(=O)c2ccc3c(c2)C[C@@]2(C3)C(=O)NC(=O)N2C)C(=O)N1CC(F)(F)F [Example 4]
